In patent US11608332B2, “FGFR4 inhibitor and preparation method and use thereof” (Jiangsu Hansoh Pharmaceutical Group Co., Ltd., priority 2016, dated 2023):

Tests used:
Hep 3B cells = assay: Inhibition of Hep 3B cell proliferation (CellTiter-Glo); type: cell-based; conditions: Homo sapiens, Hep3B, 72 hours
Procedure, shortened: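 Hep 3B cells seeded at 1-5×10^4 cells/ml and incubated 16-24 h, then exposed to serially diluted compound for 72 h at 37° C, 5% CO2. Viability read by CellTiter-Glo chemiluminescence; IC50 curve-fitted from inhibition rates.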

[1] = Pharmacokinetic (PK) analysis in rats; type: in vivo, Sprague Dawley (SD) rats; conditions: SD rats, single intragastric administration, 5 mg/kg, plasma; for AUC(0-t) / AUC(0-inf) / half-life / MRT / Cmax: Sprague-Dawley, rat, po; for AUC(0-t): read-out: Area Under Curve AUC0-t; for AUC(0-inf): read-out: Area Under Curve AUC0-∞; for half-life: read-out: Half-Time t1/2 (converted); for MRT: read-out: Mean Residence Time MRT; for Cmax: read-out: Plasma Concentration Cmax
HuH-7 cells = assay: Inhibition of HuH-7 cell proliferation (CellTiter-Glo); type: cell-based; conditions: Homo sapiens, 72 hours
Procedure, shortened: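 HuH-7 cells, pre-incubated 16–24 h (37 °C, 5% CO2), then exposed to serially diluted compound for 72 h. Viability by CellTiter-Glo luminescence; inhibition rates from signal, IC50 by curve fitting.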

FGFR4 kinase = FGFR4 kinase (Homo sapiens (Human), UniProt P22455); assay: Enzymologic experiment of FGFR4 (TR-FRET); type: biochemical; conditions: TR-FRET kinase activity
Method: 1. Enzymologic Experiment of FGFR4
In this experiment, the inhibitory effect of the compounds on FGFR4 kinase activity was tested by a fluorescence resonance energy transfer (TR-FRET) method, and the half maximal inhibitory concentration (IC50) of the compounds on the FGFR4 kinase activity was determined.
2) 1˜5 μL of diluted solution in gradient of the compound were added.
4) The mixture was incubated for 0.5-3 hours at room temperature.
5) 10 μL of EDTA and a test solution comprising labeled antibody were added, and the plate was incubated for 1 hour at room temperature.
6) The fluorescence signal values of each plate were determined by a microplate reader at 665 nm.
7) The inhibition rates were calculated according to the fluorescence signal values.

FGFR1 kinase = FGFR1 kinase (Homo sapiens (Human), UniProt P11362); assay: Enzymologic experiment of FGFR1 (TR-FRET); type: biochemical; conditions: TR-FRET kinase activity
Procedure, shortened: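 Inhibition of FGFR1 (0.1–5 nM) was measured by TR-FRET with 5–50 nM peptide substrate and 10–200 μM ATP over 0.5–3 h at room temperature. The reaction was stopped with EDTA plus labeled antibody for 1 h, read at 665 nm, and IC50 was fitted from inhibition rates.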

SK-HEP-1 cells = assay: Inhibition of SK-HEP-1 cell proliferation (CellTiter-Glo); type: cell-based; conditions: Homo sapiens, SK-HEP1, 72 hours
Procedure, shortened: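 SK-HEP-1 cells were seeded, grown 16–24 h, then exposed to serially diluted compound for 72 h at 37 °C, 5% CO2. Viability was read by CellTiter-Glo luminescence, and IC50 was fitted from inhibition rates.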

Sequence of FGFR1 kinase (P11362 22-822): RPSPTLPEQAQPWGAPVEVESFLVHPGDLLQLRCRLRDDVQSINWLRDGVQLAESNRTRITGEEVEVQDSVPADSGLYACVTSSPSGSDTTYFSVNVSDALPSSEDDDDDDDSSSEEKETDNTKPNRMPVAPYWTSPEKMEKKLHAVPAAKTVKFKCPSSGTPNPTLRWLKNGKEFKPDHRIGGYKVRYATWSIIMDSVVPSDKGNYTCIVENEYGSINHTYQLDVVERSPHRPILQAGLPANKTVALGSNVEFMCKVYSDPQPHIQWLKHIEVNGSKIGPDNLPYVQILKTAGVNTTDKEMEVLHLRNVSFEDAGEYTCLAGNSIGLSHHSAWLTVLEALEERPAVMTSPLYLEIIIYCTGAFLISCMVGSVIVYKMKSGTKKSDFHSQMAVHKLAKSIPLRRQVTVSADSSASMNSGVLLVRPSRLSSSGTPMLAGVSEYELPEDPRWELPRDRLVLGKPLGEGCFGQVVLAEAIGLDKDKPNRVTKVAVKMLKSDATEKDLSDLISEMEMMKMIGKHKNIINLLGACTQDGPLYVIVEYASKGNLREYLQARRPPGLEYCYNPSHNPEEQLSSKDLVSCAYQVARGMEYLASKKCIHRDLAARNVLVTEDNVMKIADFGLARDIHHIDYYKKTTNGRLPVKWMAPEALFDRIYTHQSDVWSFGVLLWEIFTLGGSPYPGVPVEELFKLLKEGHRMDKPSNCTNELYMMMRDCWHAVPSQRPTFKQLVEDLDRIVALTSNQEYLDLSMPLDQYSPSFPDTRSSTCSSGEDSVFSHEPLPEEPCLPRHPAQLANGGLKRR
Sequence of FGFR4 kinase (P22455 22-802): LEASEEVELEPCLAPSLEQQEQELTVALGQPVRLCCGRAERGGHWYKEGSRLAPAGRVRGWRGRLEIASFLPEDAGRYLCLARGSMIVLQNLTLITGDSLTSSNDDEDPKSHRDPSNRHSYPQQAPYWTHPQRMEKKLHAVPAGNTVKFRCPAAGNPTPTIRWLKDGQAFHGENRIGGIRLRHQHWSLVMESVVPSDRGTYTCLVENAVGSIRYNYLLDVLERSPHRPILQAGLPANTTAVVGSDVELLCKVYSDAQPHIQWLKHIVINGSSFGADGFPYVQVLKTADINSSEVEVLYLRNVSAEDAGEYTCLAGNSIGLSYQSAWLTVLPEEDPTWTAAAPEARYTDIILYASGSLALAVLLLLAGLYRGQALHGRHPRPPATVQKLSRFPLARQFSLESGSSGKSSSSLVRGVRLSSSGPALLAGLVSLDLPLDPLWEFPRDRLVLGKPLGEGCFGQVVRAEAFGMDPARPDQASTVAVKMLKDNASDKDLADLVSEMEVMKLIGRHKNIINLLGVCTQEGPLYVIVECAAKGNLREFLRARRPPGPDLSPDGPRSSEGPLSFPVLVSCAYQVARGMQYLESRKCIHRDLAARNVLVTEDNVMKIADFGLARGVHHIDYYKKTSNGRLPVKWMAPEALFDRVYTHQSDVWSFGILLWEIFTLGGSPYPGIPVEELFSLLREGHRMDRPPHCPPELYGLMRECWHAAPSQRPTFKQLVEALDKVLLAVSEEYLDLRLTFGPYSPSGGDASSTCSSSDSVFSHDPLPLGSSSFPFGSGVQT

| SMILES | Peak Time tmax [1] [h] | AUC(0-t) [1] [ng·h/mL] | AUC(0-inf) [1] [ng·h/mL] | half-life [1] [h] | MRT [1] [h] | Cmax [1] [ng/mL] | IC50 (HuH-7 cells) [nM] | IC50 (FGFR4 kinase) [nM] | IC50 (FGFR1 kinase) [nM] | IC50 (SK-HEP-1 cells) [nM] | IC50 (Hep 3B cells) [nM] |
| --- | --- | --- | --- | --- | --- | --- | --- | --- | --- | --- | --- |
| CN(Cc1cc2c(nc1C=O)N(C(=O)Nc1cc(N[C@H]3CCOC3)c(C#N)cn1)CCC2)C(=O)C1CCOCC1 [Example 99, (S)—N-(5-Cyano-4-((tetrahydrofuran-3-yl)amino)pyridin-2-yl)-7-formyl-6-((N-methyltetrahydro-2H-pyran-4-carboxamido)methyl)-3,4-dihydro-1,8-naphthyridin-1(2H)-carboxamide] | – | – | – | – | – | – | 12 | 1.95 | > 10000 | > 10000 | 5.5 |
| COCCSc1cc(NC(=O)N2CCCc3cc(CN(C)C(=O)[C@H]4CCCO4)c(C=O)nc32)ncc1C#N [Example 16, (R)—N-(5-Cyano-4-((2-methoxyethyl)thio)pyridin-2-yl)-7-formyl-6-((N-methyltetrahydrofuran-2-carboxamido)methyl)-3,4-dihydro-1,8-naphthyridin-1(2H)-carboxamide] | 2 | 8760 | 8370 | 1.4 | 2.5 | 3140 | 10.7 | 1.98 | > 10000 | > 10000 | 3.9 |
| COCC(=O)N(C)Cc1cc2c(nc1C=O)N(C(=O)Nc1cc(N[C@@H]3COC[C@H]3OC)c(C#N)cn1)CCC2 (relative stereo) [Example 108, N-(5-Cyano-4-(((trans)-4-methoxytetrahydrofuran-3-yl)amino)pyridin-2-yl)-7-formyl-6-((2-methoxy-N-methylacetamido)methyl)-3,4-dihydro-1,8-naphthyridin-1 (2H)-carboxamide] | – | – | – | – | – | – | 10 | 1.07 | > 10000 | > 10000 | 2.5 |

Second part, led by results:

| Peak Time tmax [1] [h] | AUC(0-t) [1] [ng·h/mL] | AUC(0-inf) [1] [ng·h/mL] | half-life [1] [h] | MRT [1] [h] | Cmax [1] [ng/mL] | IC50 (HuH-7 cells) [nM] | IC50 (FGFR4 kinase) [nM] | IC50 (FGFR1 kinase) [nM] | IC50 (SK-HEP-1 cells) [nM] | SMILES | IC50 (Hep 3B cells) [nM] |
| --- | --- | --- | --- | --- | --- | --- | --- | --- | --- | --- | --- |
| 2 | 9220 | 9240 | 0.8 | 2.5 | 2350 | 9.4 | 1.2 | > 10000 | > 10000 | COC[C@@H](C)Oc1cc(NC(=O)N2CCCc3cc(CN4CC[C@H](OC)C4=O)c(C=O)nc32)ncc1C#N [Example 50, N-(5-Cyano-4-(((R)-1-methoxypropan-2-yl)oxy)pyridin-2-yl)-7-formyl-6-(((S)-3-methoxy-2-carbonylpyrrolidin-1-yl)methyl)-3,4-dihydro-1,8-naphthyridin-1(2H)-carboxamide] | 2.3 |
| 2 | 7520 | 7590 | 0.9 | 3 | 2330 | 5.5 | 1.32 | > 10000 | > 10000 | CO[C@H]1CCN(Cc2cc3c(nc2C=O)N(C(=O)Nc2cc(NC4COC4)c(C#N)cn2)CCC3)C1=O [Example 83, (S)—N-(5-Cyano-4-(oxetan-3-ylamino)pyridin-2-yl)-7-formyl-6-((3-methoxy-2-carbonylpyrrolidin-1-yl)methyl)-3,4-dihydro-1,8-naphthyridin-1(2H)-carboxamide] | 4.7 |
| 2 | 6830 | 6900 | 1 | 2.7 | 2760 | 13.1 | 1.34 | > 10000 | > 10000 | CO[C@H]1CCN(Cc2cc3c(nc2C=O)N(C(=O)Nc2cc(N[C@@H]4COC[C@H]4OC)c(C#N)cn2)CCC3)C1=O [Example 86] | 3 |
| 2 | 4400 | 4800 | 1.3 | 3 | 1700 | 31 | 0.74 | > 10000 | > 10000 | COCCNc1cc(NC(=O)N2CCCc3cc(CN(C)C(=O)[C@H]4CCCN4C)c(C=O)nc32)ncc1C#N [Example 9, (R)—N-(5-Cyano-4-((2-methoxyethyl)amino)pyridin-2-yl)-6-((N,1-dimethylpyrrolidin-2-carboxamido)methyl)-7-formyl-3,4-dihydro-1,8-naphthyridin-1(2H)-carboxamide] | 8.2 |
| 2 | 7160 | 7970 | 1.5 | 3 | 2690 | 8 | 2.53 | > 10000 | > 10000 | COC[C@@H](C)Oc1cc(NC(=O)N2CCCc3cc(CN(C)C(=O)[C@H]4CCCO4)c(C=O)nc32)ncc1C#N [Example 15, N-(5-Cyano-4-(((R)-1-methoxypropan-2-yl)oxy)pyridin-2-yl)-7-formyl-6-(((R)—N-methyltetrahydrofuran-2-carboxamido)methyl)-3,4-dihydro-1,8-naphthyridin-1(2H)-carboxamide] | 3.5 |
